Experimental data as given in patent US20220142958A1, “MEDICINAL COMPOSITION HAVING EXCELLENT STABILITY” (EA Pharma Co., Ltd., priority 2019, published 2022).

Experiments:
[1] = Example 4B: residual ratio at 50, 60, 70° C. and Arrhenius estimation at 25° C.; assay type: physicochemical; conditions: for Kobs: estimation at 25° C. (Arrhenius plot); for Residual ratio (%) estimation: estimation at 25° C.
Procedure: According to Table 13, Compound A1 was dissolved at 2 concentrations in each of the buffer solutions having a pH at each of both ends of Example 4A. Each of these solutions was dispensed into a glass vial and stored at each of 50° C., 60° C., and 70° C. After the storage, a residual ratio was calculated according to a test method described below.
Test method: In the solution after the storage, the residual ratio was analyzed according to a normal method using a liquid chromatography apparatus Prominence (manufactured by Shimadzu Corporation) and an ultraviolet absorptiometer (measurement wavelength: 254 nm, Prominence (manufactured by Shimadzu Corporation)). At this time, SUMIPAX ODS (3 mm×150 mm, […], manufactured by SCAS) was used as a column.
The calculation for obtaining the residual ratio (%) of Compound A1 during each storage period is as follows.
Residual ratio (%) of Compound A1 during each storage period=peak area of Compound A1 in sample solution/peak area of Compound A1 in standard solution×100
Here, “Compound A1 in standard solution” refers to a solution obtained by dissolving Compound A1 in each of the buffer solutions shown in Table 13 so that a concentration was 0.1 mg/mL, and then storing the solution at 5° C. It was clear from the results of Example 1 that the solution of Compound A1 was stable when being stored at 5° C., and thus, the solution was used as the standard solution.
The reaction rate constant at each of the storing temperatures was calculated using the obtained residual ratio. The Arrhenius plot was performed to calculate the reaction rate constant (h^−1) at an arbitrary temperature. As an example, the residual ratio estimation at 25° C. is shown in Table 15 and described in FIG. 1.

male beagles = experiment: Emetogenicity of Compound A1 in dogs; assay type: in vivo, dog; conditions: for Number of vomiting cases/Number of administration: Intravenous
Procedure: A crossover trial was conducted with male beagles (Nosan Beagle, 14 to 87-month-old, weight: 10.2 kg to 15.8 kg). The Compound A1 solutions used in Reference Example 2 were given at 0.3, 1 and 10 mg/kg by bolus administration (0.5 mL/kg, 1 mL/sec) to 3 to 6 dogs per dose to confirm the manifestation of vomiting immediately after the administration. Administration was conducted once or twice a week with an interval of 2 days or longer. Administration was conducted prior to feeding. Symptoms prior to, immediately after, and 15 and 30 minutes after the administration were observed.

[2] = tested on: SHPT patients on maintenance hemodialysis; experiment: Phase I/II clinical trial, single administration; assay type: in vivo, human; conditions: for percentage decrease in the serum iPTH concentration: 66 hours after the administration
Procedure: Targeting SHPT patients on maintenance hemodialysis, pharmacokinetics, pharmacodynamics and safety upon single or repeated intravenous administration of Compound A1 were examined by conducting a double-blind test using a placebo as a control.
Single administration: Based on the clinically effective dose calculated in Reference Example 5, the doses were given at 0.025 mg, 0.05 mg, 0.1 mg, 0.2 mg, 0.4 mg, 0.6 mg, and 0.8 mg (7 steps). On the day of trial drug administration, the trial drug was intravenously administered as slow as possible within 60 seconds 2 to 4 hours following the end of dialysis. Here, the trial drug was administered by diluting a required dose taken from the Compound A1 vial formulation prepared as follows with sterilized water for injection, and filling a syringe with the resultant in accordance with the dose to be administered.
Each item was evaluated according to the predetermined evaluation schedule.
A vial formulation encapsulating 1 mg of Compound A1 in terms of a dehydrate, and sodium chloride, disodium hydrogen phosphate dodecahydrate, and sodium dihydrogen phosphate dihydrate as additives in 10 ml of sterilized water for injection

Cc1c(Cl)cc(S(=O)(=O)[O-])cc1NC(=O)NC[C@H](N)C(=O)O.[Na+] [Compound A1, sodium 3-{[(2S)-2-amino-2-carboxyethyl]carbamoylamino}-5-chloro-4-methylbenzenesulfonate]
Kobs ([1]; pH 1.1, 0.1 mg/mL): 3.01e-06 h⁻¹ | Kobs ([1]; pH 1.1, 10 mg/mL): 5.55e-06 h⁻¹ | Kobs ([1]; pH 7.0, 0.1 mg/mL): 3.1e-06 h⁻¹ | Kobs ([1]; pH 7.0, 10 mg/mL): 5.73e-06 h⁻¹ | Residual ratio (%) estimation ([1]; pH 1.1, 0.1 mg/mL, 3M): 99.4% | Residual ratio (%) estimation ([1]; pH 1.1, 0.1 mg/mL, 6M): 98.7% | Residual ratio (%) estimation ([1]; pH 1.1, 0.1 mg/mL, 12M): 97.4% | Residual ratio (%) estimation ([1]; pH 1.1, 10 mg/mL, 3M): 98.8% | Residual ratio (%) estimation ([1]; pH 1.1, 10 mg/mL, 6M): 97.6% | Residual ratio (%) estimation ([1]; pH 1.1, 10 mg/mL, 12M): 95.3% | Residual ratio (%) estimation ([1]; pH 7.0, 0.1 mg/mL, 3M): 99.3% | Residual ratio (%) estimation ([1]; pH 7.0, 0.1 mg/mL, 6M): 98.7% | Residual ratio (%) estimation ([1]; pH 7.0, 0.1 mg/mL, 12M): 97.4% | Residual ratio (%) estimation ([1]; pH 7.0, 10 mg/mL, 3M): 98.8% | Residual ratio (%) estimation ([1]; pH 7.0, 10 mg/mL, 6M): 97.6% | Residual ratio (%) estimation ([1]; pH 7.0, 10 mg/mL, 12M): 95.2% | storage stability ([1]; formulation with pH of 1.1 and 7.0, 25° C., over 12 months (estimation)): excellent storage stability | Residual ratio (%) ([1]; pH 1.1, 0.1 mg/mL, 50° C., 23 hours): 98.9% | Residual ratio (%) ([1]; pH 1.1, 0.1 mg/mL, 50° C., 141 hours): 96.9% | Residual ratio (%) ([1]; pH 1.1, 0.1 mg/mL, 50° C., 570 hours): 92.3% | Residual ratio (%) ([1]; pH 1.1, 0.1 mg/mL, 60° C., 23 hours): 97.8% | Residual ratio (%) ([1]; pH 1.1, 0.1 mg/mL, 60° C., 141 hours): 92.0% | Residual ratio (%) ([1]; pH 1.1, 0.1 mg/mL, 60° C., 570 hours): 76.7% | Residual ratio (%) ([1]; pH 1.1, 0.1 mg/mL, 70° C., 23 hours): 94.5% | Residual ratio (%) ([1]; pH 1.1, 0.1 mg/mL, 70° C., 141 hours): 76.8% | Residual ratio (%) ([1]; pH 1.1, 0.1 mg/mL, 70° C., 570 hours): 35.5% | Residual ratio (%) ([1]; pH 1.1, 10 mg/mL, 50° C., 23 hours): 96.2% | Residual ratio (%) ([1]; pH 1.1, 10 mg/mL, 50° C., 141 hours): 96.4% | Residual ratio (%) ([1]; pH 1.1, 10 mg/mL, 50° C., 570 hours): 89.5% | Residual ratio (%) ([1]; pH 1.1, 10 mg/mL, 60° C., 23 hours): 96.4% | Residual ratio (%) ([1]; pH 1.1, 10 mg/mL, 60° C., 141 hours): 95.6% | Residual ratio (%) ([1]; pH 1.1, 10 mg/mL, 60° C., 570 hours): 73.4% | Residual ratio (%) ([1]; pH 1.1, 10 mg/mL, 70° C., 23 hours): 92.5% | Residual ratio (%) ([1]; pH 1.1, 10 mg/mL, 70° C., 141 hours): 84.2% | Residual ratio (%) ([1]; pH 1.1, 10 mg/mL, 70° C., 570 hours): 36.5% | Residual ratio (%) ([1]; pH 7.0, 0.1 mg/mL, 50° C., 23 hours): 99.6% | Residual ratio (%) ([1]; pH 7.0, 0.1 mg/mL, 50° C., 141 hours): 97.7% | Residual ratio (%) ([1]; pH 7.0, 0.1 mg/mL, 50° C., 570 hours): 90.9% | Residual ratio (%) ([1]; pH 7.0, 0.1 mg/mL, 60° C., 23 hours): 98.2% | Residual ratio (%) ([1]; pH 7.0, 0.1 mg/mL, 60° C., 141 hours): 89.2% | Residual ratio (%) ([1]; pH 7.0, 0.1 mg/mL, 60° C., 570 hours): 63.9% | Residual ratio (%) ([1]; pH 7.0, 0.1 mg/mL, 70° C., 23 hours): 93.8% | Residual ratio (%) ([1]; pH 7.0, 0.1 mg/mL, 70° C., 141 hours): 68.0% | Residual ratio (%) ([1]; pH 7.0, 0.1 mg/mL, 70° C., 570 hours): 21.1% | Residual ratio (%) ([1]; pH 7.0, 10 mg/mL, 50° C., 23 hours): 100.0% | Residual ratio (%) ([1]; pH 7.0, 10 mg/mL, 50° C., 141 hours): 98.0% | Residual ratio (%) ([1]; pH 7.0, 10 mg/mL, 50° C., 570 hours): 89.0% | Residual ratio (%) ([1]; pH 7.0, 10 mg/mL, 60° C., 23 hours): 97.2% | Residual ratio (%) ([1]; pH 7.0, 10 mg/mL, 60° C., 141 hours): 86.3% | Residual ratio (%) ([1]; pH 7.0, 10 mg/mL, 60° C., 570 hours): 61.0% | Residual ratio (%) ([1]; pH 7.0, 10 mg/mL, 70° C., 23 hours): 91.7% | Residual ratio (%) ([1]; pH 7.0, 10 mg/mL, 70° C., 141 hours): 64.4% | Residual ratio (%) ([1]; pH 7.0, 10 mg/mL, 70° C., 570 hours): 22.2% | Number of vomiting cases/Number of administration (male beagles; 0.3 mg/kg): 0/3 | Number of vomiting cases/Number of administration (male beagles; 1 mg/kg): 0/3 | Number of vomiting cases/Number of administration (male beagles; 10 mg/kg): 1/6 | therapeutic margin with respect to vomiting (dog C0 vs human C0) (male beagles; dog 1 mg/kg vs human 0.1 mg/man): ≥ 430 times | percentage decrease in the serum iPTH concentration ([2]; 0.025 mg dose group): 27% | percentage decrease in the serum iPTH concentration ([2]; 0.05 mg dose group): 48% | percentage decrease in the serum iPTH concentration ([2]; 0.1 mg dose group): 44% | percentage decrease in the serum iPTH concentration ([2]; 0.2 mg dose group): 57% | percentage decrease in the serum iPTH concentration ([2]; 0.4 mg dose group): 78% | percentage decrease in the serum iPTH concentration ([2]; 0.6 mg dose group): 69% | percentage decrease in the serum iPTH concentration ([2]; 0.8 mg dose group): 66% | time the serum iPTH lowering effect continued after the administration ([2]; single administration, just before the dialysis): up to 66 hours | vomiting ([2]; single administration, observed in the 0.4 mg and higher dose groups): non-severe and mild | nausea ([2]; single administration, observed in the 0.6 mg and higher dose groups): non-severe and mild | Cmax and AUC in plasma ([2]; single i.v. 0.025 to 0.8 mg, relation to dose): increased with the increase in the given dose
